Assays:
[1] = tested on: ear skin triglyceride levels; experiment: Hamster ear triglyceride content after chronic treatment; format: in vivo, Syrian hamster; conditions: oral 30 mg/kg once daily for 19 days
Protocol: Male Syrian gold hamsters weighing between 150-200 g (22-23 weeks) were maintained adlibitum on standard hamster chow and on a 12 hour light and dark cycle. […] At the end of the study period, animals were euthanized by CO2 asphyxiation. Hamster pinia (ear) were removed by punch biopsy (using an 8 mm diameter Sklar Tru-punch—Sklar Instruments). Punch biopsies were taken just above the anatomical “V” in the aural cartilage of each ear to standardize sample collection area. The punch was then split into 2 layers (anterior and posterior). The anterior (front) surface was retained for analysis. For liver samples the bifurcated medial lobe was removed, rinsed in saline and drained of blood by placing the cut end of the lobe on a sterile absorbent paper and using capillary action. The liver lobe was then flash frozen in liquid nitrogen. Two Qiagen 3 mm Tungsten beads were added to tubes containing individual anterior biopsies of hamster ear skin along with 500 ul of homogenization buffer (methanol:water 1:1 v/v). […] Ear skin triglyceride content was determined via LC-MS on the AB SCIEX Qtrap 5500. […] Lipid extracts were then analyzed by UPLC-MS/MS using a Waters Acquity UPLC coupled to an AB Sciex QTRAP 5500 mass spectrometer. […] Lipid species were then analyzed on the mass spectrometer using positive ion electrospray ionization in the multiple reaction monitoring (MRM) mode. […]

[2] = tested on: SZ95 human sebocyte cells; experiment: Inhibition of de novo lipogenesis (14C-acetate incorporation) in cultured human sebocytes; format: cell-based; conditions: Homo sapiens, SZ95 sebocytes, 14C-acetate incorporation into lipids relative to vehicle; read-out: C9302E Sebocyte IC50
Protocol: SZ95 sebocytes were grown in Human Sebocyte Growth Medium (HSGM) (Sebomed® medium (Biochrom: F8205) supplemented with 10% heat-inactivated fetal bovine serum, 1% penicillin/streptomycin, 1 mM calcium chloride and 5 ng/mL recombinant human epidermal growth factor (Life Tech: PHG0311)). At 90% confluence, cells were washed three times with PBS and then detached with 0.05% Trypsin-EDTA. Cells were centrifuged and resuspended in HSGM containing 10% charcoal-stripped serum (Life Tech: 12676-029). Cells were then plated in 24-well plates at a density of 0.25×10^6 cells/well and were incubated overnight to enable cell adherence to the culture plate.
Cells were treated with a dose response of compound, and each dose was assayed in triplicate. Briefly, compounds were dissolved in DMSO stocks and diluted 1:1000 into charcoal-stripped media. 0.1% DMSO without compound was used as the vehicle control. After a 1 hour preincubation with compound or vehicle, 0.25 μCi ^14C-acetic acid (American Radiolabeled Chemicals: ARC0158B) was added to each well. Plates were then incubated for an additional two hours. At the end of the incubation period, cells were removed from incubator, placed on ice, and then washed twice with ice-cold PBS to remove free ^14C-acetic acid. Plates were sealed and stored at −20° C. until analysis.
Plates were shaken for 1 hour at room temperature to induce lysis. Lysates were transferred to individual 1.5 mL polypropylene tubes, and wells were washed with 175 μl of PBS, which was added to lysates. 450 μl of a 1:1 (v/v) chloroform:methanol solution was then added to each tube, and then all tubes were vortexed for 10 seconds and centrifuged at 20,000×g for 5 minutes at room temperature to separate aqueous from organic phase. A 25 μl aliquot was removed from the bottom organic layer of each sample and added to 6 mL OptiPhase supermix (PerkinElmer: 1200-439) scintillation fluid. Counts of ^14C incorporated into lipids were assessed by scintillation counting. DNL (counts of ^14C incorporated into lipids) was expressed for compound treated cells relative to DNL in the vehicle control treated cells for determination of EC50 values. For a subset of the compounds tested, a second aliquot (3×35 μl) of the organic layer of each sample was removed and applied to a TLC lane (Analtech Silica Gel G Plates). Radiolabeled lipids were resolved using a 2-solvent system. Solvent 1 contained a 100:100:100:40:36 mixture of ethyl acetate:isopropyl alcohol:CHCl3:MeOH:0.25% KCl and solvent 2 a 70:27:3 hexane:diethyl ether:acetic acid mix. The TLC plate was dried under nitrogen for 30 minutes and [^14C]-calibrators added to a vacant lane. Bands were visualized and quantitated using a Molecular Dynamics' Storm 860 Phosphorimager system following 18-36 hours exposure to a Phosphorimager screen.

[3] = tested on: de novo lipogenesis in ear skin and liver; experiment: Effect of oral and topical ACCi on DNL (14C-acetate incorporation) in Syrian hamsters; format: in vivo, Syrian hamster; conditions: oral 100 mg/kg single dose, vs. vehicle
Protocol: Male Syrian gold Hamster at ˜10 weeks were maintained adlibitum on standard hamster chow and water. […] Example 3 for topical delivery was prepared as a solution in a vehicle consisting of 70:30 (Ethanol:propylene glycol) at a concentration of 100 mg/ml. Topical administration of a single dose (5 ul/ear) was applied to hamster ears with a pipette (2-10 ul) tip adhering to 2 minute intervals following the dosing order. The dosing timing allowed for the formulation to spread evenly over an approximate 1 sq cm area and absorb/dry prior to returning the animal to the cage. 1 hour post ACCi dose each animal received an IP injection of ^14C-labeled acetate (ARC0158B diluted in saline) following the 2 minute interval timing format. Each animal received an individually calculated amount of ^14C-acetate based on body weight (0.1 μCi/g in a dosing volume of 2 μl/g). One hour after the ^14C-Acetate injection animals were sacrificed by CO2 asphyxiation.
Liver and ear skin were collected for de novo lipogenesis determinations (^14C incorporation to lipid). Briefly, 2 liver punches totaling ˜400 mg of liver were collected from the bifurcated median lobe of each animal (using a 8 mm diameter Sklar Tru-punch—Sklar Instruments), rinsed with saline and blotted dry. The tissues were placed into pre-weighed in glass tubes (Pyrex 9826-16×125 mm with PTFE lined caps) containing NaOH (1.5 mL of 2.5 M).
Ear skin samples were prepared for analysis in the following manner. One 8 mm distal biopsy punch (using an 8 mm diameter Sklar Tru-punch—Sklar Instruments) (2 per animal) was taken just above the anatomical “V” in the aural cartilage to standardize sample collection area. The punch was then split into 2 layers (anterior and posterior). The anterior (front) surface is retained for analysis. The anterior skin was placed into pre-weighed in glass tubes (Pyrex 9826-16×125 mm with PTFE lined caps) containing NaOH (1.5 mL of 2.5 M).
Upon completion of the study, the liver and ear skin samples in NaOH were weighed and this weight was used to calculate the mass of the tissue collected. The capped tubes were heated in an dry oven (˜60° C.) until the tissue was fully degraded (˜4-6 hr, gentle vortexing 2-3 times during heating). Following degradation and cooling absolute ethanol (2.5 mL) was added to each sample. The tubes were recapped and vigorously mixed (vortexed) for 60 seconds and allowed to settle overnight at RT. Petroleum ether (4.8 mL) was added to each tube, recapped and the samples were vigorous mixed (60 sec). […] Aquasol-2 scintillation fluid (10 mL) (or other compatible scintillation fluid) was added to each vial and after vortexing the samples were counted in an appropriate scintillation counter (e g. Wallac Rack-Beta 1409 LSC). […]

IC50 [2]: 549 nM
Compound: CC(C)(C)n1cc2c(n1)C(=O)CC1(CCN(C(=O)c3ccc4[nH]ncc4c3)CC1)O2 [Example 8, 2′-(tert-butyl)-1-(1H-indazole-5-carbonyl)-2′H-spiro[piperidine-4,5′-pyrano[3,2-c]pyrazol]-7′(6′H)-one]
ear skin triglyceride levels vs. vehicle [1]: No changes | suppression of incorporation of de novo synthesized fatty acids in liver [3]: 85% | suppression of incorporation of de novo synthesized fatty acids in skin [3]: 84%

Source: patent US20160220557A1, “USE OF ACETYL-COA CARBOXYLASE INHIBITORS FOR TREATING ACNE VULGARIS” (PFIZER INC., priority 2013, published 2016)
